Laboratory results from publication PMC5489165, “Identification of benzazole compounds that induce HIV-1 transcription” (PLoS ONE, 2017).

Assays:
[1] = test system: HIV-1 RNA in ACH-2 cells; experiment: HIV activation assay in ACH-2 model of latency (qRT-PCR); type: cell-based; conditions: 24 h; for Induction of HIV-1 transcription in ACH-2 cells (in words): 30 μM, qRT-PCR (Fig 3); for EC10X, ACH-2: concentration for 10-fold increase in HIV-1 RNA by qRT-PCR
Description: ACH-2 cells were maintained in RPMI-1640 medium without phenol red and with 10% FBS at 37°C in a 5% CO2 atmosphere. Cells were plated at 5000/well in 96-well round-bottom plated and test compounds were added in a final concentration of 0.5% DMSO, in duplicate. Cells were incubated for 24 h at 37°C, 5% CO2, then pelleted at 2000 × g for 5 min followed by washing in 0.1 ml PBS. RNA was isolated using Invitrogen PureLink 96 RNA Purification Kit with vacuum manifold per the manufacturer’s instructions, including DNase I treatment. HIV-1 transcripts were detected using TaqMan® RNA-to-CT™ 1-step kit (Applied Biosystems, Foster City, CA) and primers/probe specific to gag (SK38 forward: 5ʹ-[…]-3ʹ; SK39 reverse: 5ʹ-[…]-3ʹ; SK19 probe: 5ʹ-6FAM […] TAMRA-3ʹ) or tat (forward: 5ʹ-[…]-3ʹ; reverse: 5ʹ-[…]-3ʹ; probe: 5ʹ-6FAM […]-3ʹ). GAPDH RNA was monitored in all assays as an endogenous control for selectivity using a pre-developed TaqMan assay reagent (Applied Biosystems, Foster City, CA). RNA was quantified on an Applied Biosystems 7900HT. PCR replicates were performed for each biological replicate. Viral RNA expression was normalized to GAPDH RNA and data are expressed as the change from vehicle-only control wells.

[2] = test system: NF-κB response element reporter in Jurkat cells; experiment: NF-κB-responsive Fluc reporter in Jurkat cells; type: cell-based, human; conditions: stably-transfected Jurkat cells, 4 h
Source text: The vector pGL4.32[luc2P/NF-κB-RE/Hygro] was purchased from Promega (Madison, WI), encoding 5 copies of a NF-κB response element driving expression of synthetic firefly luciferase gene, luc2, including a PEST destabilization sequence. Jurkat cells were transfected with this vector using a Gene Pulser® II (Biorad, Hercules, CA) with a 0.4 cm gap cuvette at 0.2 kV and 960 μF. Cells were allowed to recover for three days in RPMI-1640 with 10% FBS and 1% penicillin/streptomycin before selection with 200 μg/ml Hygromycin B for one month. Pooled, stably-transfected cells were plated at 50,000/well in 96-well plates and treated with test compounds in a final concentration of 0.5% DMSO for 4 h at 37°C. Luciferase activity was determined by adding one volume 2× steadylite plus reagent (Perkin Elmer, Waltham, MA) and reading on a ViewLux microplate imager.

[3] = test system: HIV-1 LTR; experiment: HIV LTR-driven Rluc reporter in HeLa cells; type: cell-based; conditions: transfected HeLa cells, 24 h
Source text: The vector pGL4.77[hRlucP/Hygro] encoding a Renilla luciferase gene including a PEST destabilization sequence, was purchased from Promega (Madison, WI). HIV-1 cDNA was generated from HIVIIIB virus using PureLink® Viral RNA/DNA Mini Kit (Invitrogen). The HIV-1 core promoter region (nucleotides -105 to 60) was amplified from HIVIIIB cDNA using primers designed with NheI (forward: 5ʹ-GCTAGCGGGACTTTCCGCTGGG-3ʹ) and XhoI (reverse: 5ʹ-CTCGAGAGTGGGTTCCCTAGTTAGCCA-3ʹ) flanking restriction site sequences. DNA fragments were generated using Platinum® Taq DNA Polymerase High Fidelity (Invitrogen) and fragment size was verified by electrophoresis using E-Gel® 1.2% agarose (Invitrogen). Fragments were cloned into pCR™2.1 TOPO® (Invitrogen), transformed into One Shot® TOP10 Chemically Competent E. coli (Invitrogen), and selected on LB-agar plates containing 100 μg/ml ampicillin. Individual colonies were grown in LB broth, DNA was isolated using QIAprep® Spin Miniprep Kit (Qiagen), and the inserted fragment was verified by EcoRI digestion followed by electrophoresis using E-Gel® 1.2% agarose (Invitrogen). To insert the HIV-1 LTR into the vector multiple cloning region, the resultant plasmids and pGL4.77[hRlucP/Hygro] were dually digested with NheI and XhoI (New England Biolabs), ligated using ExpressLink™ T4 DNA Ligase (Invitrogen), transformed into One Shot® TOP10 Chemically Competent E. coli (Invitrogen), and selected on LB-agar plates containing 100 μg/ml ampicillin. Clones were picked and DNA isolated using QIAprep® Spin Miniprep Kit (Qiagen) and the inserted fragment was verified by NheI/XhoI digestion followed by electrophoresis using E-Gel® 1.2% agarose (Invitrogen). The resultant plasmid, pGL4.77-LTR, was verified by sequencing at GENEWIZ (South Plainfield, NJ). […] Luciferase activity was quantified using Renilla Luciferase Assay System (Promega, Madison, WI) and results were normalized to the vehicle-treated control.

Row | Structure (SMILES) | Induction of HIV-1 transcription in ACH-2 cells (in words) [1] | EC10X, ACH-2 [1] | Induction of NF-κB driven reporter (in words) [2] | Transcription driven by the HIV-1 LTR (in words) [3]
1 | Nc1ccc2[nH]c(-c3ccc(-c4nc5cc(N)ccc5o4)cc3)nc2c1 [Compound 1, 2-(4-(5-amino-1H-benzimidazol-2-yl)phenyl)benzoxazol-5-amine] | induced HIV-1 transcription | 390 ± 120 nM | Neither Compound 1 nor Compound 2 induced | did not significantly increase transcription
2 | Nc1ccc2[nH]c(-c3ccc(-c4nc5ccc(N)cc5o4)cc3)nc2c1 [Compound 2] | induced HIV-1 transcription | 970 ± 500 nM | Neither Compound 1 nor Compound 2 induced | did not significantly increase transcription
